Test results taken from patent US9718823B2, “2, 6-Di-nitrogen-containing substituted purine derivative, and preparation method, pharmaceutical composition and use thereof” (Zhejiang Medicine Co., Ltd. Xinchang Pharmaceutical Factory, priority 2013, dated 2017).

What was measured:
[1] = biological target: T1, PI3 K γ (Homo sapiens, UniProt P48736); test: Inhibitory activity to PI3K γ, PI 3-Kinase (human) HTRF Assay kit; format: biochemical; details: for inhibition at 1 µM / inhibition at 10 µM: read-out: Inhibition rate % to PI3 K γ
T1 construct: purchased Biology, Medicilon
Excerpt: (§1) Study on the inhibitory activity of the compounds of present invention to PI 3κα, PI3κδ and PI3κγ. Two or three concentrations of the compounds are selected to preliminary screening to calculate respectively the activity inhibition rate of the compounds of corresponding concentrations to enzyme, then the compounds with better activity are selected by preliminary screening for IC50 test.
(§2) PI 3-Kinase (human) HTRF™ Assay kit (Cat.33-017, Millipore)
PI 3k γ (Biology, Medicilon)
(§3) 4× Reaction Buffer (Cat.33-002, Millipore) is diluted with ddH2O to 1.33×, and 1M DTT is added to make the final concentration as 6.67 mM. For example, 10 μL DTT is added into 500 μL 4× Reaction Buffer, and water is added to 1.5 mL.
(§4) The Test compounds are dissolved with DMSO to 1 mM as storage liquid. 2 μL of each of storage liquid is added into 48 μL ddH2O, to obtain the 40 μM compounds solution containing 4% DMSO. After mixing, 3 μL of each of the solution is added into 27 μL 4% DMSO (in ddH2O) to obtain the 4 μM compounds solution. 5 μL of each dilute solution is added into 384-well plates, then the final concentration of the compounds in the 20 μL final kinase reaction system is 10 μM and 1 μM respectively contained 1% DMSO. The dilution methods of compounds are similar to the preliminary screening in IC50 test.
(§5) 2×PIP2 working fluid is prepared with 1.33× reaction buffer to the final concentration of 20 μM.
The screening concentration of PI 3k γ kinase: 80 ng/well,
(§6) Kinase is diluted with 2×PIP2 operating fluid, the concentration of kinase operating fluid is 2 times of screening concentration.
(§7) 10 mM ATP is diluted with 1.33× reaction buffer to 400 μM. The concentration of ATP is 100 μM in 20 μL kinase reaction system.
(§8) Stop A and Stop B are mixed according to the proportion of 3:1, and are placed for 2 hours at room temperature to obtain the stop solution available.
(§9) DM C, DM A and DM B are mixed according to the proportion of 18:1:1, and are placed for 2 hours at room temperature to obtain the detection solution available.

[2] = biological target: T2, PI3Kδ (Homo sapiens, UniProt O00329); test: Inhibitory activity to PI3K δ, PI 3-Kinase (human) HTRF Assay kit; format: biochemical; details: for inhibition at 1 µM / inhibition at 10 µM: read-out: Inhibition rate % to PI3Kδ
T2 construct: purchased Millipore 14-604
Procedure: Study on the inhibitory activity of the compounds of present invention to PI 3κα, PI3κδ and PI3κγ.
as §2
For example, 10 μL DTT is added into 500 μL 4× Reaction Buffer, and water is added to 1.5 mL.
The Test compounds are dissolved with DMSO to 1 mM as storage liquid. 2 μL of each of storage liquid is added into 48 μL ddH2O, to obtain the 40 μM compounds solution containing 4% DMSO. After mixing, 3 μL of each of the solution is added into 27 μL 4% DMSO (in ddH2O) to obtain the 4 μM compounds solution. […]
The screening concentration of PI 3k δ kinase: 2 ng/well,
as §6
The concentration of ATP is 100 μM in 20 μL kinase reaction system.
as §8, §9

[3] = tested on: PC-3 cell Akt (Ser473) phosphorylation; test: Inhibition of phosphorylation level of PC-3 cell Akt (Ser473), Cisbio HTRF phospho Akt (Ser473) cell-based assay; parameters: species or system human; details: Homo sapiens, PC-3, PC-3 cells, hEGF 100 ng/ml stimulation; 1st and 2nd test where printed
Procedure: The inhibitory activity of the compounds of present invention to the phosphorylation level of PC-3 cell Akt (Ser473) is studied by using Cisbio HTRF phospho Akt (Ser473) cell-based assay test kit.
Cell strain: PC-3 prostate cancer cells line (cell bank of Chinese Academy of Sciences) is cultured by using culture medium (F12K+10% FBS).
hEGF is prepared as stock solution of 100 ug/ml with 10 mM acetic acid, and the stock solution is diluted to 200 ng/ml with serum-free medium, added 50 ul to each well to be stimulated.
b) Preparation of Complete Lysate • 4×Lysis Buffer is diluted 4 times with ddH2O to prepare 1×Lysis Buffer. • 100×Blocking Reagent is diluted 100 times with 1×Lysis Buffer.
c) Preparation of Detection Liquid • 20×Anti-Phospho-Akt is diluted 20 times with Detection Buffer. • 20×Anti-Akt is diluted 20 times with Detection Buffer.
The compounds are diluted with DMSO, and the working concentration of compounds is 100 times of detection concentration.
Cells in logarithmic growth phase are collected, counted, and resuspended with complete culture medium;
The cell concentration is adjusted to appropriate concentration, and cell suspension is inoculated into 96 well plates at 50 μl per well;
Cells are incubated for more than 4 h in the 5% CO2 incubator at temperature of 37° C., relative humidity of 100%;
Cell plate is removed from the incubator. The cell suspension is aspirated gently, and 50 ul serum-free F12K medium is quickly added, then the cell plate is placed into the incubator to culture overnight.
The compounds are diluted in a linear gradient with DMSO.
0.5 ul compounds is added into the test well, mixed on oscillators, and incubated at room temperature for 2 hours.
Proportioned hEGF solution is added to test well at 50 μl per well, and the final concentration is 100 ng/ml. serum-free medium is added into The negative control well at 50 μl per well.
The solution is mixed on oscillator and incubated at room temperature for 2 hours.
The liquid in 96 well plates is aspirated by multichannel pipette or the supernatant is discarded gently. The proportioned complete lysate is added quickly at 50 μl per well.
The solution is mixed on oscillator and lysed at room temperature for 30 min.
16 μl cell lysate is transferred from the 96 well plates to white low volume 384 well plates, and the proportioned two pairs of detection antibody are added. The solution is mixed on oscillator, and incubated at room temperature for 4 hours to detect the readings.

[4] = biological target: T3, PDGFR β enzyme (Homo sapiens, UniProt P09619); test: Inhibitory activity to PDGFR β enzyme, HTRF kinEASE TK kit; format: biochemical; details: for inhibition at 1 µM / inhibition at 10 µM: read-out: Inhibition rate % (PDGFR β)
T3 construct: purchased Invitrogen P3082
Procedure: HTRF kinEASE TK (Cat.62TK0PEC, Cisbio)
PDGFR β enzyme (Cat.P3082, Invitrogen)
1 mL 1×Kinase Buffer includes 200 μL 5×Enzyme buffer, 5 μL 1M MgCl2, 1 μL 1M DTT, 1 μL 1M MnCl2, 20 μL 2500 nM SEB, 773 μL ddH2O.
TK-Substrate and ATP are diluted to 2.5 times of reaction concentration with 1×PDGFR β Kinase Buffer.
5×PDGFR β enzyme working solution is prepared with 1×PDGFR β kinase buffer.
4×Sa-XL665 working solution is prepared with Detection Buffer.
TK-Ab-Cryptate is diluted 100 times with Detection Buffer to use as working solution.

[5] = biological target: T4, PI3K α (Homo sapiens, UniProt P42336); test: Inhibitory activity to PI3K α, PI 3-Kinase (human) HTRF Assay kit; format: biochemical; details: read-out: % Inhibition Rate to PI3K α
T4 construct: purchased Millipore 14-602
Excerpt: as §1, §2
PI 3k α (Cat.14-602, Millipore)
as §3, §4, §5
The screening concentration of PI 3k α kinase: 8 ng/well,
as §6, §7, §8, §9

T4 sequence (P42336 whole entry): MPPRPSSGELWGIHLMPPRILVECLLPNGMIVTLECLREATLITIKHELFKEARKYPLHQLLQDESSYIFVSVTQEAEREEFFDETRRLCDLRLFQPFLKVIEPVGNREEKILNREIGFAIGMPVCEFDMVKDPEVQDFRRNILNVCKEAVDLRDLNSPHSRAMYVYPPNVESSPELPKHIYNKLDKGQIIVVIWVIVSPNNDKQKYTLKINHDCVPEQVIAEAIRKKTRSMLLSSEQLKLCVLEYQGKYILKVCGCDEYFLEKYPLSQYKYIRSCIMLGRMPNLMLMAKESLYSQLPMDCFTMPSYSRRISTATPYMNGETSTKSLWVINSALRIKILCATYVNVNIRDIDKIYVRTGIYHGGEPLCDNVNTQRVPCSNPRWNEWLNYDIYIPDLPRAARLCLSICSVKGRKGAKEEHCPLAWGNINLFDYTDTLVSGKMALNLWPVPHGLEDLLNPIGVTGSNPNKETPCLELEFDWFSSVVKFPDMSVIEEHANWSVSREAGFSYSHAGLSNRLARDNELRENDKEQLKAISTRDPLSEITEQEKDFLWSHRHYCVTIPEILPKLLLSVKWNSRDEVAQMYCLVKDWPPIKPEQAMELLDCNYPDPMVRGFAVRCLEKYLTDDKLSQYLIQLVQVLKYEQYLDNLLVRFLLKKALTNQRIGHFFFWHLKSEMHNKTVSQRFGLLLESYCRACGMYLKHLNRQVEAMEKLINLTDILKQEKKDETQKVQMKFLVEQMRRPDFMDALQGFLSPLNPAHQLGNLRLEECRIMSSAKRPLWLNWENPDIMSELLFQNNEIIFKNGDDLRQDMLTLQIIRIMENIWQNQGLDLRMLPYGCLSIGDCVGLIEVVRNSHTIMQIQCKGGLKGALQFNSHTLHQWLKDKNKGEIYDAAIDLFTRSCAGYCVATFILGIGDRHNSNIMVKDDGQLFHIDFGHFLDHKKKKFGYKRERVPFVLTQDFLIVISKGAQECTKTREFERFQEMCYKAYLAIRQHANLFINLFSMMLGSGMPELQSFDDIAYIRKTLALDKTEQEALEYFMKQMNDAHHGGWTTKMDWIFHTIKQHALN
T4 sequence (P27986 whole entry partner): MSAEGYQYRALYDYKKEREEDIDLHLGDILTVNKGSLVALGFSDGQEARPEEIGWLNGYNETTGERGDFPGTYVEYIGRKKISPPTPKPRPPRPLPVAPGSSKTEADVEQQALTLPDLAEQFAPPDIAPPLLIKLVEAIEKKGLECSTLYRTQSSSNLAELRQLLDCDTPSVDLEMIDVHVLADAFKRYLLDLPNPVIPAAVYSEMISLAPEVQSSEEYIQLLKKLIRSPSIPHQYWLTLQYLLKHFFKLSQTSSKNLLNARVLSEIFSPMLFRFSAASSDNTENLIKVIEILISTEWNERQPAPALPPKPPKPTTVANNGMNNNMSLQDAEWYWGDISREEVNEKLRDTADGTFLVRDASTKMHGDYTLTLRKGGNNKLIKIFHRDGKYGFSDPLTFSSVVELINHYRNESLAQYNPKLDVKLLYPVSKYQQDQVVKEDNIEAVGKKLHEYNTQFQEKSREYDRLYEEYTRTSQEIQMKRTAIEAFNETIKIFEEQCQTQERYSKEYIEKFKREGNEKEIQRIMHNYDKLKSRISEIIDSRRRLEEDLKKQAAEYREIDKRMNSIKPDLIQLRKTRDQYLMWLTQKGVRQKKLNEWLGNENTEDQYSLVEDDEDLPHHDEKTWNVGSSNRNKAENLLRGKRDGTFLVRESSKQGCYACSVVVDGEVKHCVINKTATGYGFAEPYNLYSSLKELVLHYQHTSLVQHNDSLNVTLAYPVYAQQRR
T1 sequence (P48736 whole entry): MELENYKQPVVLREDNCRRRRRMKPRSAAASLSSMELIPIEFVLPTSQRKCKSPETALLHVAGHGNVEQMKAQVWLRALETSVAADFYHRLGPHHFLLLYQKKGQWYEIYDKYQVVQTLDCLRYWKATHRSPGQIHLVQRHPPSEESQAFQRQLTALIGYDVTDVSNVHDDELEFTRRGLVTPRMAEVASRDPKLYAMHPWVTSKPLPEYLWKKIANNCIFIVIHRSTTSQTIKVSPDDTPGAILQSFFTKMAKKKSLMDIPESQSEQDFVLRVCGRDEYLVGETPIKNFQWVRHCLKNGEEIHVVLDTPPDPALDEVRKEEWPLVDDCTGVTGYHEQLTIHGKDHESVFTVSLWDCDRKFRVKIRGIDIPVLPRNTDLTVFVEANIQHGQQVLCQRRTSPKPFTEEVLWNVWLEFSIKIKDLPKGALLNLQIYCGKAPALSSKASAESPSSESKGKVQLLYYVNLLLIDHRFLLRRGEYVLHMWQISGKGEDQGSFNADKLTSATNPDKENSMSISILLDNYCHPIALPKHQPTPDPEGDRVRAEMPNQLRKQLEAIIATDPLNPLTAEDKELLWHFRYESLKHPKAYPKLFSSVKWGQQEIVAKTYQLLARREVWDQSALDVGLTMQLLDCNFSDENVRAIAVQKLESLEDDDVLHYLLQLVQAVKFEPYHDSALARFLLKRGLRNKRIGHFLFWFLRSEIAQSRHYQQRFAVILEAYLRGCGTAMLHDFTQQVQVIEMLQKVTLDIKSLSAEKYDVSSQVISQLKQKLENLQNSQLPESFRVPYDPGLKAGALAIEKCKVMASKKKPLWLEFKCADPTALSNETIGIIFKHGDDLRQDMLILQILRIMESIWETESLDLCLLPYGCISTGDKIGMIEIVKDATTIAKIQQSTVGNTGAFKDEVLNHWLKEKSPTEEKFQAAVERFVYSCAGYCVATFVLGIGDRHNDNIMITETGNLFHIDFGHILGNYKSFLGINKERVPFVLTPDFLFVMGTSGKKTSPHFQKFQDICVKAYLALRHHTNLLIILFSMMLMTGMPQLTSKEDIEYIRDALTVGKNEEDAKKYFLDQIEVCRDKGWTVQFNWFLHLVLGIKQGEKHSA
T2 sequence (O00329 whole entry): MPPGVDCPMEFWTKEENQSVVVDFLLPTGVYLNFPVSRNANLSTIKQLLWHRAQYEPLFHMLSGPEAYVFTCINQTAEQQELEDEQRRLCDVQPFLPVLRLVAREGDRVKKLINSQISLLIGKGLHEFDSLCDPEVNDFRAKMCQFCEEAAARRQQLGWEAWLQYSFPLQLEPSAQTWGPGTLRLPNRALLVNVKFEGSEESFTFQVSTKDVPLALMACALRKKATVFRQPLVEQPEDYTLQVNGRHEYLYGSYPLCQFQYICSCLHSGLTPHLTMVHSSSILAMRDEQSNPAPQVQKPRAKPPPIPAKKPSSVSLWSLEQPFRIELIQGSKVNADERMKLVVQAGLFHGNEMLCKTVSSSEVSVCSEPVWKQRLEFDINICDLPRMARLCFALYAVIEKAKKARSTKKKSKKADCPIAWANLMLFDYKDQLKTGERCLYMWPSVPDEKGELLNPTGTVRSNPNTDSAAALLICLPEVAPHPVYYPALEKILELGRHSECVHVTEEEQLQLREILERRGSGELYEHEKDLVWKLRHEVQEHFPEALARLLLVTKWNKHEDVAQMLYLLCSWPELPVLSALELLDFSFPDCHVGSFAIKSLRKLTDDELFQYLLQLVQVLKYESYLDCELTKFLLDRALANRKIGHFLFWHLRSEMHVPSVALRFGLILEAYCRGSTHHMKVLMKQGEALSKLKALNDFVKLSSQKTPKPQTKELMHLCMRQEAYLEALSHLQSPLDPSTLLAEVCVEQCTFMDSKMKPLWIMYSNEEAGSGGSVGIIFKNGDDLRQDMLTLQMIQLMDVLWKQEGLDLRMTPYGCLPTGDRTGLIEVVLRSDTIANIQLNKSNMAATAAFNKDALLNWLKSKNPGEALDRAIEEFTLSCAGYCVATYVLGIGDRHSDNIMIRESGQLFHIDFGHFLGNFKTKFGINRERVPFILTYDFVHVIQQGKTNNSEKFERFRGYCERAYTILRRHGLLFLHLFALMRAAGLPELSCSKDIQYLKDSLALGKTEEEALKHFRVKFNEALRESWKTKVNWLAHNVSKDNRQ
T2 sequence (P27986 whole entry partner): as the sequence (P27986 whole entry partner) above
T3 sequence (P09619 33-1106): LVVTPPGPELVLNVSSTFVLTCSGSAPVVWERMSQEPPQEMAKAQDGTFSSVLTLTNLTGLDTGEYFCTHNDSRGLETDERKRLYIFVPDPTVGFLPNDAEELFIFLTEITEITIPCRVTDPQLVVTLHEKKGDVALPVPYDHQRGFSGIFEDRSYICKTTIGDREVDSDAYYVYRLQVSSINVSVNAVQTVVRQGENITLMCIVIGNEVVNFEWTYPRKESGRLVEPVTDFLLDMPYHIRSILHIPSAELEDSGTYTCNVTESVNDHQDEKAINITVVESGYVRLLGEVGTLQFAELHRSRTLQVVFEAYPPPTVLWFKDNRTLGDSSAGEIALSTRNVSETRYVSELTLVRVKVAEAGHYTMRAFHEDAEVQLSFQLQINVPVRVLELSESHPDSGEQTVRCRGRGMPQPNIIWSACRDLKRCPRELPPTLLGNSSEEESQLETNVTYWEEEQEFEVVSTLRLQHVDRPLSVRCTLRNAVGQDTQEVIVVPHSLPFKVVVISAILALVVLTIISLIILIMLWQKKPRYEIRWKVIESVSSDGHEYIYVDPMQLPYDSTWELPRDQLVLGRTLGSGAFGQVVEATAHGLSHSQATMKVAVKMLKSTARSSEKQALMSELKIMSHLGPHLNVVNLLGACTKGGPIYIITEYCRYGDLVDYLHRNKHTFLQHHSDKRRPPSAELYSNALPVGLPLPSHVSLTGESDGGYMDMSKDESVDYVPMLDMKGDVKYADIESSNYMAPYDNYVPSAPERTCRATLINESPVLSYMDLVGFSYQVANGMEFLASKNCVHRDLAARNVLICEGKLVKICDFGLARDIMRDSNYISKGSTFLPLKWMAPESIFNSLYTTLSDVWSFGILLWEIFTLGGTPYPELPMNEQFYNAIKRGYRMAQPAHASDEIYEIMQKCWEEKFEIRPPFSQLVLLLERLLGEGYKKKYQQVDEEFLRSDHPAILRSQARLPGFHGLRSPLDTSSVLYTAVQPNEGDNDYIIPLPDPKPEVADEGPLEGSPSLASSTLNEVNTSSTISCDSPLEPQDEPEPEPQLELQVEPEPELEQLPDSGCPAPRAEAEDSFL

| Inhibition rate % to PI3 K γ ([1]; 1 μM) | Inhibition rate % to PI3 K γ ([1]; 10 μM) | Inhibition rate % to PI3Kδ ([2]; 1 μM (Table 7), 1 µM) | Inhibition rate % to PI3Kδ ([2]; 10 μM (Table 7), 10 µM) | IC50 [3] | Inhibition rate % (PDGFR β) ([4]; 1 μM) | Inhibition rate % (PDGFR β) ([4]; 10 μM) | inhibition at 1 µM ([1]; 1 μM) | inhibition at 10 µM ([1]; 10 μM) | inhibition at 1 µM ([2]; 1 μM (Table 7)) | inhibition at 10 µM ([2]; 10 μM (Table 7)) | inhibition at 1 µM ([4]; 1 μM) | inhibition at 10 µM ([4]; 10 μM) | inhibition at 1 µM [5] | inhibition at 10 µM [5] | Compound |
| --- | --- | --- | --- | --- | --- | --- | --- | --- | --- | --- | --- | --- | --- | --- | --- |
| – | – | – | – | – | – | – | 7.02% | 41.5% | 31% | 103% | -5.37% | 2.89% | 46.2% | 110% | CSc1cccc(-c2ccnc3ccc(Nc4nc(NC5CC5)c5nc[nH]c5n4)cc23)c1 [MED1007-88, N6-cyclopropyl-N2-(4-(3-(methylthio)phenyl)quinoline-6-yl)-9H-purine-2,6-diamine] |
| – | – | – | – | – | – | – | 74.7% | 77% | 72.3% | 88.5% | 98.4% | 99.5% | 56.3% | 114% | c1cnc2ccc(Nc3nc(OC4CCC4)c4nc[nH]c4n3)cc2c1 [MED1007-97] |
| – | – | – | – | – | – | – | 32.8% | 105% | 71.1% | 105% | 38.1% | 37.8% | 102% | 118% | c1ccc(-c2ccnc3ccc(Nc4nc(OC5CCC5)c5nc[nH]c5n4)cc23)cc1 [MED1007-98] |
| – | – | – | – | – | – | – | 4.68% | 39.9% | 7.67% | 88.1% | 33.1% | 9.88% | 23.3% | 88.3% | c1ccc(-c2ccnc3ccc(Nc4nc(NCC5CCCC5)c5nc[nH]c5n4)cc23)cc1 [MED1007-99, N6-(cyclopentylmethyl)-N2-(4-phenylquinoline-6-yl)-9H-purine-2,6-diamine] |
| – | – | – | – | 276 nM | – | – | – | – | 68% | 87.5% | – | – | 55.3% | 82.2% | c1ccc(-c2ccnc3ccc(Nc4nc(N5CCCC5)c5nc[nH]c5n4)cc23)cc1 [MED1007-103, 4-phenyl-N-(6-(pyrrolidine-1-yl)-9H-purine-2-yl)quinoline-6-amine] |

Second part, the compound before the results:

| Compound | Inhibition rate % to PI3 K γ ([1]; 1 μM) | Inhibition rate % to PI3 K γ ([1]; 10 μM) | Inhibition rate % to PI3Kδ ([2]; 1 μM (Table 7), 1 µM) | Inhibition rate % to PI3Kδ ([2]; 10 μM (Table 7), 10 µM) | IC50 [3] | Inhibition rate % (PDGFR β) ([4]; 1 μM) | Inhibition rate % (PDGFR β) ([4]; 10 μM) | inhibition at 1 µM ([1]; 1 μM) | inhibition at 10 µM ([1]; 10 μM) | inhibition at 1 µM ([2]; 1 μM (Table 7)) | inhibition at 10 µM ([2]; 10 μM (Table 7)) | inhibition at 1 µM ([4]; 1 μM) | inhibition at 10 µM ([4]; 10 μM) | inhibition at 1 µM [5] | inhibition at 10 µM [5] |
| --- | --- | --- | --- | --- | --- | --- | --- | --- | --- | --- | --- | --- | --- | --- | --- |
| c1ccc(-c2ccnc3ccc(Nc4nc(NC5CC5)c5nc[nH]c5n4)cc23)cc1 [MED1007-31, N6-cyclopropyl-N2-(4-phenylquinoline-6-yl)-9H-purine-2,6 diamine] | 11.33% | 52.59% | 40.16% | 97.80% | 112 nM | 13.84% | 26.16% | – | – | – | – | – | – | – | – |
| c1cnc2ccc(Nc3nc(OC4CCCC4)c4nc[nH]c4n3)cc2c1 [MED1007-35, N-(6-cyclopentyloxy-9H-purine-2-yl) quinoline-6-amine] | – | – | – | – | 74.5 nM | – | – | 19.2% | 53% | 44.4% | 87.4% | 54.8% | 99% | – | – |
| COc1ccc(-c2ccnc3ccc(Nc4nc(NC5CC5)c5nc[nH]c5n4)cc23)cc1 [MED1007-63, N6-cyclopropyl-N2-(4-(4-methoxyphenyl)quinoline-6-yl)-9H-purine-2,6-diamine] | – | – | – | – | 62.2 nM | – | – | 0.96% | 14.7% | 37.5% | 122% | -0.31% | 28% | – | – |
| COc1ccccc1-c1ccnc2ccc(Nc3nc(NC4CC4)c4nc[nH]c4n3)cc12 [MED1007-86, N6-cyclopropyl-N2-(4-(2-methoxyphenyl)quinoline-6-yl)-9H-purine-2,6-diamine] | – | – | – | – | – | – | – | 8.35% | 23.1% | 27.3% | 66.4% | -5.49% | -3.13% | 19.2% | 39.6% |
| CSc1ccccc1-c1ccnc2ccc(Nc3nc(NC4CC4)c4nc[nH]c4n3)cc12 [MED1007-87, N6-cyclopropyl-N2-(4-(2-(methylthio)phenyl)quinoline-6-yl)-9H-purine-2,6-diamine] | – | – | – | – | – | – | – | -3.76% | 29.5% | 23% | 80% | -7.6% | -4.13% | 13.8% | 60.6% |
